From PubChem BioAssay AID2740 (NMMLSC, 2010)
The source made the active and inactive calls.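 How the source made its calls: active means compounds whose fitted half-maximal concentration for changing the GFP signal is at or below a set limit; inactive means the rest.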

experiment: TOR pathway RPL19A-GFP modulators, concentration series – cell-based, S. cerevisiae, flow cytometry, MLPCN hits, dose response (AID 2740);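 further: background is signal of the same compound in parental non-GFP s288c yeast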; conditions: S. cerevisiae RPL19A-GFP strain, flow cytometry fluorescence, 3 h; at 33 µM (top of the series)

Structure (SMILES) | GFP fluorescence, lower = active (kMESF (background-subtracted))
O=C1C(Cl)=C(N2CCN(Cc3ccccc3)CC2)C(=O)N1c1ccccc1 | 40.2 (inactive)
COc1cc(/C=C2/C(=O)c3cccc([N+](=O)[O-])c3C2=O)c(Br)cc1O | 43.9 (inactive)
Cc1ccc(/C=c2\sc3nc(-c4cccs4)nn3c2=O)o1 | 44.7 (inactive)
Cc1ccccc1[C@]1(C)ON(c2ccccc2C(F)(F)F)C1=O | 42.8 (inactive)
CCN1C(=O)/C(=C\C(=O)c2cccs2)c2cc(Br)ccc21 | 34.5 (inactive)
CCN(CC)C(=O)Oc1ccnc2cc(Cl)ccc12 | 41.8 (inactive)
CCCCC(=O)NNC(=S)NC(=O)c1ccc(C)cc1 | 42.3 (inactive)
O=C1N(c2ccccc2C(F)(F)F)O[C@]1(c1ccccc1)C1CCCC1 | 36.6 (inactive)
CN(C)c1ccc(N=Cc2nc(-c3ccccc3)oc2OC(=O)c2ccccc2)cc1 | 44.1 (inactive)
CN(C)/C=C/C(=O)c1ccc(-c2ccc(Cl)cc2Cl)o1 | 40.9 (inactive)
Cc1ccsc1/C=N/Nc1ncc(Cl)cc1Cl | 49.1 (inactive)
Cc1ccc(/C=C2\SC(=S)N(CC3CCCO3)C2=O)o1 (stereo not drawn) | 42.5 (inactive)
O=C(Oc1oc(-c2ccco2)nc1C=Nc1ccccc1)c1ccco1 | 38.5 (inactive)
O=C(/C=C/c1cc(Br)ccc1O)c1ccco1 | 33.5 (inactive)
Cc1cccc(NC(c2ccc(C)s2)c2ccc3ccc(C)nc3c2O)n1 (stereo not drawn) | 31.2 (inactive)
O=C(CCS(=O)(=O)c1ccccc1)Nc1nc(-c2ccccn2)cs1 | 37.8 (inactive)
O=C(Nc1ccc(O)cc1)C1CCCN1S(=O)(=O)c1ccc(F)cc1 (stereo not drawn) | 45 (inactive)
CC(=O)N(C(C)=O)c1ncnc2c1c(-c1ccc(Cl)cc1)nn2C(C)(C)C | 42.9 (inactive)
CC(C)[C@]1(c2ccc(Cl)cc2)ON(c2ccccc2C(F)(F)F)C1=O | 40.6 (inactive)
O=C(NC(=S)NNC(=O)c1cnccn1)c1ccc(Cl)cc1 | 48.5 (inactive)
C=CCn1c(C)c(/C=C/c2cc[n+](C)cc2)c2ccccc21 | 52.8 (inactive)

Structure (SMILES) | GFP fluorescence, lower = active (kMESF (background-subtracted))
C=CCOc1ccc(C(=O)/C=C2/C(=O)Nc3ccccc32)cc1 | 37.9 (inactive)
COc1cc(C=C2C(=O)c3ccccc3C2=O)cc(OC)c1OC | 43.2 (inactive)
COc1ccc(NC2=C(Cl)C(=O)N(CCc3ccccc3)C2=O)c(OC)c1 | 39.1 (inactive)
O=C1N(c2ccccc2C(F)(F)F)O[C@@]1(c1ccccc1)C1CCCCC1 | 37.6 (inactive)
Cc1ccc2[nH]c(C)c(/C=C/c3cc[n+](C)cc3)c2c1 | 37.4 (inactive)
CN(c1ccccc1)c1ccc(/C=c2\s/c(=C(/C#N)C(=O)C(C)(C)C)n(Cc3ccco3)c2=O)cc1 | 56 (inactive)
O=C1N(c2ccccc2C(F)(F)F)O[C@]1(c1ccccc1)C1CCCCC1 | 36.4 (inactive)
CCC(=O)Nc1ccc(NC(=O)c2cc3ccccc3o2)cc1 | 39.4 (inactive)
Cc1cc(=O)oc2cc(Oc3ccc([N+](=O)[O-])cc3C(F)(F)F)ccc12 | 44.2 (inactive)
C[n+]1ccc(/C=C/c2c[nH]c3ccccc23)cc1 | 53.8 (inactive)
N/C(=N\OC(=O)c1cccc(Br)c1)c1ccccc1 | 40.8 (inactive)
CCOC(=O)CS(=O)(=O)c1nc(-c2ccc(F)cc2)cc(C(F)(F)F)n1 | 46.7 (inactive)
CC(=O)N(C1=C(Cl)C(=O)c2ccccc2C1=O)C1CCCCC1 | -1.82 (inactive)
COc1cccc(/C=N/Nc2ncc(C(F)(F)F)cc2Cl)c1O | 38.7 (inactive)
C/C(=N\Nc1ncnc2sc(C)c(C)c12)c1ccccn1 | -2.55 (inactive)
O=c1oc(/C=C/c2ccc([N+](=O)[O-])s2)nc2ccccc12 | 55 (inactive)
COc1cccc(N=Cc2nc(-c3ccccc3)oc2OC(C)=O)c1 | 41.9 (inactive)
CCOC(=O)C1=C(O)c2ccccc2C(=O)/C1=C\c1ccc(C)cc1 | -7.18 (inactive)
CCC(C)/C(C)=N/NC(=O)c1ccc(COc2ccc(Cl)c(C)c2)cc1 (stereo not drawn) | 44.9 (inactive)
O=C(O)c1cc[c]([Hg][Cl])cc1 | 15.7 (inactive)
COc1cc(/C=C2\C(=O)ON=C2c2ccc(Cl)cc2)ccc1O | 40.8 (inactive)

Structure (SMILES) | GFP fluorescence, lower = active (kMESF (background-subtracted))
O=C(Nc1cccc(C(F)(F)F)c1)Oc1ccc(Cl)c2cccnc12 | 39.4 (inactive)
O=C1C=C(Nc2ccc(Cl)cc2)C(=O)N1c1ccc(Cl)cc1 | 39.1 (inactive)
CCCCC(=O)NC(=S)NNC(=O)CCc1ccccc1 | 37.8 (inactive)
O=C(NCc1ccc2c(c1)OCO2)c1nc(S(=O)(=O)Cc2ccccc2)ncc1Cl | 43.5 (inactive)
O=C(Oc1c(Cl)cc(Cl)c2cccnc12)c1cccc([N+](=O)[O-])c1 | 24.8 (inactive)
CCCc1ccc(OCC(=O)NNC(=S)NC(=O)c2ccco2)cc1 | 30.3 (inactive)
CC(Oc1cccc(Cl)c1)C(=O)Nc1nc(-c2ccccn2)cs1 (stereo not drawn) | 30 (inactive)
CCCc1cc(NCc2ccccn2)n2nc(C)c(-c3ccccc3)c2n1 | 39.1 (inactive)
Cc1ccc(C(=O)Sc2cccccc2=O)cc1 | 27.8 (inactive)
CC[C@]1(c2ccccc2C)ON(c2ccccc2C(F)(F)F)C1=O | 40 (inactive)
CCCCCCCCCCCCCCCC[n+]1cccc2ccccc21 | 1.36 (inactive)
CCCc1nnc(NC(=O)c2c(O)c3cccc4c3n(c2=O)CCC4)s1 | 14.6 (inactive)
Cc1ccc(NC(=O)c2ccc(Cl)c(N3C(=O)C=CC3=O)c2)cc1 | 22.4 (inactive)
COc1ccc(-c2cc3nc4n(c(=O)c3s2)CCC4)cc1 | 21.6 (inactive)
COc1ccc(C2=CC(=O)N(Nc3ccccc3)C2=O)cc1 | 34.6 (inactive)
Cc1ccc(C(c2cc(Cl)c3cccnc3c2O)N2CCN(C)CC2)cc1 (stereo not drawn) | 29.8 (inactive)
COc1ccc(N=Nc2ccc(O)c3ncccc23)cc1 | 37.9 (inactive)
N#Cc1ccc(N=c2ssnc2Cl)cc1 | 42 (inactive)
COc1ccc(-c2cc3cc(C(=O)O)ccn3c2C(=O)c2ccccc2)cc1 | 43.5 (inactive)
COc1ccc(/C=C/C(=O)c2cc(Br)ccc(=O)c2O)cc1 | -35.7 (inactive)
CC(=O)Oc1ccc(N2C(=O)C3C4C=CC(O4)C3C2=O)cc1 (stereo not drawn) | 48.8 (inactive)

Structure (SMILES) | GFP fluorescence, lower = active (kMESF (background-subtracted))
O=c1[nH]c(-c2ccc(Cl)cc2)cs1 | 41.6 (inactive)
COc1ccc([C@]2(C(C)C)ON(c3ccccc3C(F)(F)F)C2=O)cc1 | 46 (inactive)
Cc1ccc2nc(/C(C#N)=C/c3ccc(O)c(O)c3)[nH]c2c1 | 43.8 (inactive)
COc1ccc(OC)c(S(=O)(=O)ON2C(=O)c3ccccc3C2=O)c1 | 25.6 (inactive)
COc1ccc(N2CCN(C(=O)c3ccc(Br)cc3)CC2)c([N+](=O)[O-])c1 | 47.4 (inactive)
Cc1cccnc1Nc1nc(-c2ccccn2)cs1 | 33.3 (inactive)
O=c1c2cnn(-c3ccccc3)c2ncn1Cc1ccco1 | 35.6 (inactive)
O=[N+]([O-])c1cc(CN2CCN(c3cccc(C(F)(F)F)c3)CC2)c2cccnc2c1O | 22.7 (inactive)
COc1cc(NC(=O)c2ccc(C)cc2)ccc1NC(=O)c1cc2ccccc2o1 | 40.8 (inactive)
COc1ccc(/C=C/C(=O)C2C(=O)C=C(C)OC2=O)cc1O (stereo not drawn) | 39 (inactive)
O=C(OCn1ncc(Br)c(Br)c1=O)c1ccc(F)cc1 | 37.3 (inactive)
O=C(NC(=S)NNC(=O)[C@H]1C[C@@H]1c1ccccc1)c1cccc(F)c1 | 45.1 (inactive)
CCc1cc(C(=O)Nc2nc(-c3ccccn3)cs2)sc1C | 23.7 (inactive)
CCCCCCCCC/C(=N\O)c1ccccn1 | 38.8 (inactive)
[O-][n+]1cccc2c(Br)cc(Br)c(O)c21 | 42.9 (inactive)
On1ccccc1=S | 38 (inactive)
O=C(/C=C/c1ccccc1)c1cc(Br)ccc(=O)c1O | 4.04 (inactive)
Cc1ccc(S(=O)(=O)Cc2cc(F)c([N+](=O)[O-])cc2[N+](=O)[O-])cc1 | 7.75 (inactive)
COc1cc(N=c2ssnc2Cl)cc(OC)c1 | 31.6 (inactive)
N/C(=N\OC(=O)c1ccc(Cl)cc1Cl)c1ccccc1 | 39.4 (inactive)
